# System: normal rabbits
# Assay: Effect on whole tear secretion of normal rabbits, rate of increase (Test Example 5)
# Format: in vivo, Male Japanese albino rabbits
# Settings: 30 μl/eye single, 2 hours after the instillation compared with before (0 hour), 4 eyes
# Experimental: Male Japanese albino rabbits were used.
# (2) Method of Administration
# Ophthalmic solution comprising an active ingredient of the present invention was prepared and used as a test composition.
# Each of the compositions was instilled to the eye singly at the amount of 30 μl/eye.
# Amount of the Tear Secretion
# Before (0 hour) and 2 hours after the instillation, the whole tear secretion was determined.
# Under no anesthetization, one edge of the Schirmer's test strip (Showa Yakuhin Kako Co., Ltd.) was inserted into the conjunctival sac of the each test animal. One minute after, the strip was removed and the length of the moisted part was read from the scale provided on the strip to determine the amount of whole tear secretion.
# The rate (%) of increased amount of whole tear secretion was calculated at the 2 hours after the instillation compared with the before (0 hour).
molecule,measurement,setting,value
"CCCC(F)(F)C(=O)C=CCC1C(O)CC(=O)C1CCCCCCC(=O)OC (centres unmarked) [Compound 1, 15-dehydroxy-13,14-dihydro-14,15-dehydro-16keto-17,17-difluoro-PGE1-methyl ester]",Rate of the increased whole tear secretion,30 μg/ml ophthalmic solution,40.7%
"CCCCCC(=O)CC[C@H]1[C@H](O)CC(=O)[C@@H]1CCCCCCC(=O)O [Compound 6, 13,14-dihydro-15-keto-PGE1]",Rate of the increased whole tear secretion,100 μg/ml ophthalmic solution,44.0%
"CCCCC(F)(F)C(=O)CCC1C(O)CC(O)C1C/C=C\CCCC(=O)OC (centres unmarked) [Compound 4, 13,14-dihydro-15-keto-16,16-difluoro-PGF2a-Methyl ester]",Rate of the increased whole tear secretion,3 ug/ml ophthalmic solution,61.8%
"2-decarboxy-2-(2-carboxyethyl)-13,14-dihydro difluoro-PGE1 [Compound 3]",Rate of the increased whole tear secretion,10 μg/ml ophthalmic solution,52.0%
"CCCCCCC(F)(F)C(=O)CCC1C(O)CC(=O)C1CCCCCCC(=O)O (centres unmarked) [Compound 2, 13,14-dihydro-15-keto-16,16-difluoro-20-ethyl-PGE1]",Rate of the increased whole tear secretion,10 μg/ml ophthalmic solution,52.5%
"CCCCC(F)(F)C(=O)CCC1C(O)CC(=O)C1C/C=C\CCCC(=O)O (centres unmarked) [Compound 8, 13,14-dihydro-15-keto-16,16-difluoro-PGE2]",Rate of the increased whole tear secretion,1 μg/ml ophthalmic solution,24.8%
"CCCCC(F)(F)C(=O)CCC1CCC(=O)C1CCCCCCC(=O)O (centres unmarked) [Compound 5, 11-dehydroxy-13,14-dihydro-15-keto-16,16-difluoro-PGE1]",Rate of the increased whole tear secretion,3 ug/ml ophthalmic solution,43.5%
"CCCCCCC(F)(F)C(=O)CCC1C(O)CC(=O)C1CCCCCCCCC(=O)OC(C)C (centres unmarked) [Compound 7, 2-decarboxy-2-(2-carboxyethyl)-13,14-dihydro 15-keto-16,16-difluoro-20-ethyl-PGE1-isopropyl ester]",Rate of the increased whole tear secretion,2O00 μg/ml ophthalmic solution,56.9%

# From patent US7396946B2, “Compound for treatment of external secretion disorders” (Sucampo AG, priority 1999, dated 2008)
